Measurements published in article PMC5876368, “Evaluation of a dimeric-cRGD peptide for targeted PET-CT imaging of peripheral angiogenesis in diabetic mice” (Scientific Reports, 2018).

What was measured:
[1] = molecular target: T1, αV β3 integrin (Mus musculus, UniProt O54890+P43406); assay: PET-CT imaging and gamma well counting of hindlimb uptake after femoral artery ligation, DM vs non-DM mice; type: in vivo; settings: mice 1 week after femoral artery ligation
T1 construct: from tissue; host or cells: hindlimb skeletal muscle of live C57BL/6 mice (ischemic and non-ischemic, DM and non-DM)
T1 sequence (P43406 31-885 limits assumed): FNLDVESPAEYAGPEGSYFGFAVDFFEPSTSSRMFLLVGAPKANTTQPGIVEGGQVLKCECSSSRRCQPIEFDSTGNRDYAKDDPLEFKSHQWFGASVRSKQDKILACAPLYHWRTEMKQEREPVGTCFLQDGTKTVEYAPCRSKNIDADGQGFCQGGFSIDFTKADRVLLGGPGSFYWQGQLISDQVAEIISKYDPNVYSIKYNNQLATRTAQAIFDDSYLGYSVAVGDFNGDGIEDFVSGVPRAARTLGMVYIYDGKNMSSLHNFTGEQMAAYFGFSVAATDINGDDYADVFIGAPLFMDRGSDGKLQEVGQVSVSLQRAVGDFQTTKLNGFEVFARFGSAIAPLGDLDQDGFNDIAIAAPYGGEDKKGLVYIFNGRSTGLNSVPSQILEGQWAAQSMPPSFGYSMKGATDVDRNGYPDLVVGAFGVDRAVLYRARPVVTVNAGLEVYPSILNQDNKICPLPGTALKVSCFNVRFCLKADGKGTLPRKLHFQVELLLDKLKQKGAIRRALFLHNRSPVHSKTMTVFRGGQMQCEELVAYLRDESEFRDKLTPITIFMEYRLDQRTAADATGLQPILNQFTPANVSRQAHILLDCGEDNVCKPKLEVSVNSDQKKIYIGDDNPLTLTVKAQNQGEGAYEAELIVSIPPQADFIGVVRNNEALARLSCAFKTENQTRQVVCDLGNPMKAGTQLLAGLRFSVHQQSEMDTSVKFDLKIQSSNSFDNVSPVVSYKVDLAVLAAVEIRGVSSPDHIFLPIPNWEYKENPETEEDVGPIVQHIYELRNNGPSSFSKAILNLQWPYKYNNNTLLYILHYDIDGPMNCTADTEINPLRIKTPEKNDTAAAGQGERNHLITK
T1 sequence (P43406 887-1044 partner limits assumed): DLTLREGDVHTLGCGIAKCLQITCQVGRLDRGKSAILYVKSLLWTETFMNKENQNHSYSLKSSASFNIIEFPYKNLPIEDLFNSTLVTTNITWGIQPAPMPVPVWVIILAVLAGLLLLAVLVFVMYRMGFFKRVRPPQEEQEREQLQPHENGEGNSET
T1 sequence (O54890 26-787): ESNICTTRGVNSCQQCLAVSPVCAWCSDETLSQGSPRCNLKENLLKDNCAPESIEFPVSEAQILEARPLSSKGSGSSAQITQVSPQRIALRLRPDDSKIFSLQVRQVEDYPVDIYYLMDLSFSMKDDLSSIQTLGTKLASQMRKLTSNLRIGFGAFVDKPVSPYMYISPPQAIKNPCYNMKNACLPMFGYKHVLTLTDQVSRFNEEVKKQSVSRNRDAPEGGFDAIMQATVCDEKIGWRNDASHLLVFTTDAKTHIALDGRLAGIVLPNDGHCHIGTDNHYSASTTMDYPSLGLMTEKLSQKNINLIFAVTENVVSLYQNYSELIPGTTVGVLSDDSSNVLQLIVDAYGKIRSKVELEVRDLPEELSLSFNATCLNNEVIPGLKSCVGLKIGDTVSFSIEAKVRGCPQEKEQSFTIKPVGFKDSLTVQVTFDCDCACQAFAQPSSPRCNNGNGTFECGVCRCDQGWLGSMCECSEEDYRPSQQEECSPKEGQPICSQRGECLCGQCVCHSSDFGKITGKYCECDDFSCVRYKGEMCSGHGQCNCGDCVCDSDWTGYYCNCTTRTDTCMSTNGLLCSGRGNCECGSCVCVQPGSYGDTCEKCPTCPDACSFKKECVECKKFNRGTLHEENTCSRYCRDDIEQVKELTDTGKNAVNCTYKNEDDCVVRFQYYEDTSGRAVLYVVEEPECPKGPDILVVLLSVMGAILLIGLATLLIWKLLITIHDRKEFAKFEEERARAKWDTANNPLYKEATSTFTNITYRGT
Method: All animals underwent hindlimb occlusion of the right femoral artery and a sham operation on the left hindlimb, following previously-described procedures. Briefly, a small incision was made on the right leg to expose the femoral vasculature, and dual ligation of the femoral artery was performed distal to the profundus branch to induce unilateral hindlimb ischemia. All mice were allowed to recover for 7 days after surgery.
One week after occlusion, DM and non-DM mice (n = 15) were injected with 6.81 ± 0.536 MBq of ^64Cu-NOTA-PEG4-cRGD2 via the jugular vein and 60 minutes later in vivo microPET-CT imaging was performed using a small animal dedicated Inveon system (Siemens Healthcare USA). An additional group of non-diabetic mice (n = 4) was injected with 7.21 ± 2.31 MBq of ^64Cu-acetate to study differential organ biodistribution of ^64Cu-NOTA-PEG4-cRGD2. […]
The microPET and microCT images were reconstructed using the OSEM/3D algorithm (Siemens Healthcare USA) and the cone-beam technique (Cobra Exim), respectively. MicroPET images were fused with microCT images and quantified using a semiautomated approach developed and evaluated previously. […] To validate the accuracy of the quantitative targeted imaging approach, image-derived results were compared with the gamma well counting analysis of the corresponding tissue samples. […]

[2] = Biodistribution and clearance in mice (gamma well counting and PET-CT); type: in vivo; settings: one hour after jugular vein injection, gamma well counting
Method: One week after occlusion, 5 groups of animals were injected with 6.81 ± 0.536 MBq of ^64Cu-NOTA-PEG4-cRGD2 via the jugular vein and at various time points (30 min n = 3, 1 hr n = 3, 2 hr n = 3, 4 hr n = 3, and 24 hr n = 2), different organs were excised and subjected to gamma well counting. The mass and radioactivity of tissue sections were assessed with a Voyager Pro. (Ohaus, USA) and Wizard2 gamma well counter (PerkinElmer, USA) respectively. The ^64Cu signal was then corrected to account for background radioactivity, radioactive decay of the samples, and tissue weight.
One week after occlusion, DM and non-DM mice (n = 15) were injected with 6.81 ± 0.536 MBq of ^64Cu-NOTA-PEG4-cRGD2 via the jugular vein and 60 minutes later in vivo microPET-CT imaging was performed using a small animal dedicated Inveon system (Siemens Healthcare USA). […]
Skeletal muscles from both the ischemic and non-ischemic hindlimbs were excised and separated into distal and proximal sections based on the location of the ligature in the ischemic limb and anatomical landmarks in the non-ischemic limb. The mass and radioactivity of tissue sections were assessed with a Voyager Pro. […] The ^64Cu signal was then corrected to account for background radioactivity, radioactive decay of the samples, and tissue weight.

With `CC(=O)[O-].CC(=O)[O-].[64Cu+2]` [^64Cu-acetate] the “retention in ischemic relative to non-ischemic hindlimb” value [1] was “comparable accumulation in both limbs” and the “organ uptake in liver, gallbladder, kidneys and intestines” value [2] was > 20 %I.D./g.
